Values of other authors, collected in patent US20240408209A1, “Peptide-Protected Gold Nanocluster and Use in Photodynamic Therapy” (Queen's University at Kingston, priority 2023, published 2024).

Details: positive control

CN(C)c1ccc2nc3ccc(=[N+](C)C)cc-3sc2c1 [Methylene blue]
QY of photochemical generation of 1O2: 0.52
